pIC50: −log10 of the molar value.
Legend:
[1] = target: HDAC5 (Homo sapiens (Human), UniProt Q9UQL6); details: read-out: HDAC5 IC50
[2] = target: HDAC1 (Homo sapiens (Human), UniProt Q13547); details: read-out: HDAC1 IC50
[3] = target: HDAC8 (Homo sapiens (Human), UniProt Q9BY41); details: read-out: HDAC8 IC50
Sequence of HDAC8 (Q9BY41 whole entry): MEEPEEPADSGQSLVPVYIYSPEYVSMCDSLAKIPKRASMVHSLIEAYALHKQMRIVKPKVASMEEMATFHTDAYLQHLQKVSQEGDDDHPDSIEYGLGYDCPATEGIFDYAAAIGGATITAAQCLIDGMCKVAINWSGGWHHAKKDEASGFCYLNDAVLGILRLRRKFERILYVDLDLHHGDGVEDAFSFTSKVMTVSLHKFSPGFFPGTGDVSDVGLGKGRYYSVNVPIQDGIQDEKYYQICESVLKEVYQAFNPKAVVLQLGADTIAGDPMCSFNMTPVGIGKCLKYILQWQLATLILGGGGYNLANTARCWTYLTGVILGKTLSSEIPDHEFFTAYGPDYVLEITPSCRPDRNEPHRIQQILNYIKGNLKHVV

Sequence of HDAC1 (Q13547 whole entry): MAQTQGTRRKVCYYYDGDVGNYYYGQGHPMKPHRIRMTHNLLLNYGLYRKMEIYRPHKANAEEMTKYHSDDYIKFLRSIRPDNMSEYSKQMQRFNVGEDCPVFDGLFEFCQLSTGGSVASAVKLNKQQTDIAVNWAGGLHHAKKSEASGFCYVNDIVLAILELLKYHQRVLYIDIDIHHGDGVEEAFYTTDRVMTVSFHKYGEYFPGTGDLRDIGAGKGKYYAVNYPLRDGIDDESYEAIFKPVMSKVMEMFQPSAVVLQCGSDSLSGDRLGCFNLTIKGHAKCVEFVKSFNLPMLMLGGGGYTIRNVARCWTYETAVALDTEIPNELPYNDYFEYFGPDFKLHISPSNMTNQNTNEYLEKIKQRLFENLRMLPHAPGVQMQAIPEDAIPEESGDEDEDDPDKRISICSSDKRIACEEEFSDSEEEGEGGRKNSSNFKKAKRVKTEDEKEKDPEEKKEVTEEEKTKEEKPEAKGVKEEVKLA
Sequence of HDAC5 (Q9UQL6 656-1122): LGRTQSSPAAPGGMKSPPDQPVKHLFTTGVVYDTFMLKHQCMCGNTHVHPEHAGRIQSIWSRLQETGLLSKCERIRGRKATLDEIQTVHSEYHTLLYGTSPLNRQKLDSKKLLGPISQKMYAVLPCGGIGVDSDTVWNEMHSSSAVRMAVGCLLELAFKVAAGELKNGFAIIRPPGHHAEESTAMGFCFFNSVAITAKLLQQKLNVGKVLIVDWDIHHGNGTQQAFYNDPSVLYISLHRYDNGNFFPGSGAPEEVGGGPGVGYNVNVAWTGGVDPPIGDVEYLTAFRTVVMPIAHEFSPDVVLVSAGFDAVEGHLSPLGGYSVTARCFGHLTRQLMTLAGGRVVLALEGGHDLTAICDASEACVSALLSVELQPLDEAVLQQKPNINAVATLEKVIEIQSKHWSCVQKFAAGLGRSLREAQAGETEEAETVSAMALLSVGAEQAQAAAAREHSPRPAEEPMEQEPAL

| Compound | pIC50 [1] | pIC50 [2] | pIC50 [3] |
| --- | --- | --- | --- |
| O=C1CCC(c2ccccc2Cl)N1c1cc(F)c(-c2noc(C(F)(F)F)n2)cc1F (racemic) [Example 120, 5-(2-chlorophenyl)-1-(2,5-difluoro-4-(5-(trifluoromethyl)-1,2,4-oxadiazol-3-yl)phenyl)pyrrolidin-2-one] | 7.10 |  |  |
| O=C(NC(Cc1ccc(-c2noc(C(F)(F)F)n2)cn1)c1cccc(C(F)(F)F)c1)C1CCS(=O)(=O)CC1 (racemic) [Example 477, 1,1-dioxo-N-(2-{5-[5-(trifluoromethyl)-1,2,4-oxadiazol-3-yl]pyridin-2-yl}-1-[3-(trifluoromethyl)phenyl]ethyl)-llambda~6~-thiane-4-carboxamide] | 6.21 | 6.17 |  |
| CC(C)(C)CC(=O)NC(Cc1ccc(-c2noc(C(F)(F)F)n2)cn1)c1cccc(C(F)(F)F)c1 (racemic) [Example 481, 3,3-dimethyl-N-(2-{5-[5-(trifluoromethyl)-1,2,4-oxadiazol-3-yl]pyridin-2-yl}-1-[3-(trifluoromethyl)phenyl]ethyl)butanamide] | 6.15 | 5.96 |  |
| O=C1COC[C@@H](CNCc2ccc(-c3noc(C(F)(F)F)n3)cn2)N1 [Example 450, (5R)-5-{[({5-[5-(trifluoromethyl)-1,2,4-oxadiazol-3-yl]pyridin-2-yl}methyl)amino]methyl}morpholin-3-one] |  | 5.55 | 5.55 |
| O=C1COC[C@H](CNCc2ccc(-c3noc(C(F)(F)F)n3)cn2)N1 [Example 451, (5S)-5-{[({5-[5-(trifluoromethyl)-1,2,4-oxadiazol-3-yl]pyridin-2-yl}methyl)amino]methyl}morpholin-3-one] |  | 5.60 | 5.62 |
| FC(F)(F)c1nc(-c2ccc(COc3ncccn3)cc2)no1 [Example 457, 2-({4-[5-(trifluoromethyl)-1,2,4-oxadiazol-3-yl]benzyl}oxy)pyrimidine] |  | 5.59 | 6.14 |
| FC(F)(F)c1nc(-c2ccc(COc3ccc4ccccc4n3)nc2)no1 [Example 461, 2-({5-[5-(trifluoromethyl)-1,2,4-oxadiazol-3-yl]pyridin-2-yl}methoxy)quinoline] |  | 6.30 | 4.68 |
| CC(C)(C)OC(=O)C1COCC(=O)N1c1ccc(-c2noc(C(F)(F)F)n2)c(F)c1 (stereo not shown) [Example 468, tert-butyl 4-{3-fluoro-4-[5-(trifluoromethyl)-1,2,4-oxadiazol-3-yl]phenyl}-5-oxomorpholine-3-carboxylate] |  | 6.03 | 5.26 |
| O=C(C1CCS(=O)(=O)CC1)N(Cc1cnc(-c2noc(C(F)(F)F)n2)cn1)c1cccc(C(F)(F)F)c1 [Example 470, N-({5-[5-(trifluoromethyl)-1,2,4-oxadiazol-3-yl]pyrazin-2-yl}methyl)-N-[3-(trifluoromethyl)phenyl]tetrahydro-2H-thiopyran-4-carboxamide 1,1-dioxide] |  | 5.96 | 5.00 |
| COC(=O)N1CC(=O)N(Cc2ccc(-c3noc(C(F)(F)F)n3)cn2)c2ccccc21 [Example 472, methyl 3-oxo-4-({5-[5-(trifluoromethyl)-1,2,4-oxadiazol-3-yl]pyridin-2-yl}methyl)-3,4-dihydroquinoxaline-1(2H)-carboxylate] |  | 6.49 | 5.85 |
| FC(F)(F)c1nc(-c2cnc(COc3ccc4ccccc4n3)nc2)no1 [Example 473, 2-({5-[5-(trifluoromethyl)-1,2,4-oxadiazol-3-yl]pyrimidin-2-yl}methoxy)quinoline] |  | 6.80 | 4.35 |
| O=c1ccc2ccccc2n1Cc1ncc(-c2noc(C(F)(F)F)n2)cn1 [Example 474, 1-({5-[5-(trifluoromethyl)-1,2,4-oxadiazol-3-yl]pyrimidin-2-yl}methyl)quinolin-2(1H)-one] |  | 6.66 | 5.22 |
| O=C1CCc2cccc(C(F)(F)F)c2N1Cc1ccc(-c2noc(C(F)(F)F)n2)cn1 [Example 475, 8-(trifluoromethyl)-1-({5-[5-(trifluoromethyl)-1,2,4-oxadiazol-3-yl]pyridin-2-yl}methyl)-3,4-dihydroquinolin-2(1H)-one] |  | 6.06 | 5.25 |

— patent US11066396B2 (priority 2016, dated 2021)
